According to US20240228488A1 (TAKEDA PHARMACEUTICAL COMPANY LIMITED, priority 2021, published 2024):

biological target: human activated kallikrein enzyme (Homo sapiens, UniProt P03952); test: Plasma kallikrein inhibition, fluorogenic PFR-AMC substrate, 500 pM activated kallikrein format; format: biochemical; settings: 500 pM activated kallikrein, 300 uM PFR-AMC, 30 min preincubation, 10 min reaction; read-out: Primary Dose Response Assay: Average EC50
Procedure, shortened: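 Enzyme (500 pM) was preincubated with inhibitor for 30 min at room temperature in 20 mM Tris pH 7.5, 1 mM EDTA, 150 mM NaCl, 0.1% PEG-400 and 0.1% Triton X-100. The reaction was started with 300 uM PFR-AMC, run 10 min, and fluorescence read at 460 nm (380 nm excitation). EC50 derived.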

Sequence of human activated kallikrein enzyme (P03952 391-638 limits assumed): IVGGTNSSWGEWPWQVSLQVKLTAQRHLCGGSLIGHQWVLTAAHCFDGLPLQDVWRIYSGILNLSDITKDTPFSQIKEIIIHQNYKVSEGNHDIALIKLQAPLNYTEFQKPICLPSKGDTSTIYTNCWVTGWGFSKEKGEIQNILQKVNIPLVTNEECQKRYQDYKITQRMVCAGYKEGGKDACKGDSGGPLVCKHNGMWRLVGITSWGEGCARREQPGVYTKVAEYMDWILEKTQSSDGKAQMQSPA
Sequence of human activated kallikrein enzyme (P03952 20-390 partner limits assumed): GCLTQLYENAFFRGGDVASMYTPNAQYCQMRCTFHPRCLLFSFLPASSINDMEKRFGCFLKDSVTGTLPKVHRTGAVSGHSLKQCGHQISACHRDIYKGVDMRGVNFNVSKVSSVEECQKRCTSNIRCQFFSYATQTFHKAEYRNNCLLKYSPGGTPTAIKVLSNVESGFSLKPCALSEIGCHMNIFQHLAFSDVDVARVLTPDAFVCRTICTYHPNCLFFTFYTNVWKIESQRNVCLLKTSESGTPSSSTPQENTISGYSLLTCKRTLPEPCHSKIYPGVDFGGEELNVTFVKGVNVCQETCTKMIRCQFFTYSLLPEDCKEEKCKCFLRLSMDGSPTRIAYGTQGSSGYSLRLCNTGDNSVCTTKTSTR

EC50 [nM]	SMILES
> 6000	O=C([C@H]1C[C@@H]1c1cccc(Cl)c1)N(O)c1cc(NCc2cn3cc(C4CC4)ccc3n2)ncn1 [Example I-175, (1S,2S)-2-(3-chlorophenyl)-N-(6-(((6-cyclopropylimidazo[1,2-a]pyridin-2-yl)methyl)amino)pyrimidin-4-yl)-N-hydroxycyclopropane-1-carboxamide]
10 to 100	COc1ccc(CN2C(=O)CN(c3cc(C4CC4)cn4cc(CNc5cc(NC(=O)[C@H]6C[C@@H]6c6cccc(Cl)c6)ncn5)nc34)C2=O)cc1 [Example 397, (1S,2S)-2-(3-chlorophenyl)-N-(6-(((6-cyclopropyl-8-(3-(4-methoxybenzyl)-2,4-dioxoimidazolidin-1-yl)imidazo[1,2-a]pyridin-2-yl)methyl)amino)pyrimidin-4-yl)cyclopropane-1-carboxamide]
100 to 1000	COc1ccnc([C@H]2C[C@@H]2C(=O)Nc2cc(NCc3cn4cc(C5CC5)ccc4n3)ncn2)c1 (racemic) [Example I-204, rac-(1S*,2S*)-N-(6-(((6-cyclopropylimidazo[1,2-a]pyridin-2-yl)methyl)amino)pyrimidin-4-yl)-2-(4-methoxypyridin-2-yl)cyclopropane-1-carboxamide]
1 to 10	NCc1cc(C2CC2)cn2cc(COc3ccnc(NC(=O)[C@H]4C[C@@H]4c4cccc(Cl)c4)c3)nc12 (racemic) [Example 572, rac-(1S*,2S*)—N-(4-((8-(aminomethyl)-6-cyclopropylimidazo[1,2-a]pyridin-2-yl)methoxy)pyridin-2-yl)-2(3-chlorophenyl)cyclopropane-1-carboxamide]
100 to 1000	O=C(Nc1cc(OCc2cn3cc(C4CC4)ccc3n2)ncn1)[C@H]1C[C@@H]1c1cccc(Cl)c1 (racemic) [Example 104, rac-(1S*,2S*)-2-(3-chlorophenyl)-N-(6-((6-cyclopropylimidazo[1,2-a]pyridin-2-yl)methoxy)pyrimidin-4-yl)cyclopropane-1-carboxamide]
1 to 10	Cc1cc(N2CC3CC3C2=O)c2nc([C@@H](C)Nc3cc(NC(=O)[C@H]4C[C@@H]4c4nccc(C)n4)nc(C)n3)cn2c1 (stereo partly drawn) [Example 430, (1S,2S)-N-(2-methyl-6-(((1R)-1-(6-methyl-8-(2-oxo-3-azabicyclo[3.1.0]hexan-3-yl)imidazo[1,2-a]pyridin-2-yl)ethyl)amino)pyrimidin-4-yl)-2-(4-methylpyrimidin-2-yl)cyclopropane-1-carboxamide]
< 1	Cc1ccnc([C@H]2C[C@@H]2C(=O)Nc2cc(N[C@H](C)c3cn4cc(C5CC5)cc(N5CC6CC6C5=O)c4n3)nc(C)n2)n1 (stereo partly drawn) [Example 433, (1S,2S)-N-(6-(((1R)-1-(6-cyclopropyl-8-(2-oxo-3-azabicyclo[3.1.0]hexan-3-yl)imidazo[1,2-a]pyridin-2-yl)ethyl)amino)-2-methylpyrimidin-4-yl)-2-(4-methylpyrimidin-2-yl)cyclopropane-1-carboxamide]
< 1	Cc1ccnc([C@H]2C[C@@H]2C(=O)Nc2cc(N[C@H](C)c3cn4cc(C5CC5)cc(N5CC(=O)N(C)C5=O)c4n3)nc(CCO)n2)n1 [Example 468, (1S,2S)—N-(6-(((R)-1-(6-cyclopropyl-8-(3-methyl-2,4-dioxoimidazolidin-1-yl)imidazo[1,2-a]pyridin-2-yl)ethyl)amino)-2-(2-hydroxyethyl)pyrimidin-4-yl)-2-(4-methylpyrimidin-2-yl)cyclopropane-1-carboxamide]
10 to 100	Cc1ccnc([C@H]2C[C@@H]2C(=O)Nc2cc(N3C[C@@H](O)C[C@@H]3c3cn4cc(C5CC5)ccc4n3)ncn2)c1F (relative stereo) [Example 542, rac-(1S*,2S*)-N-(6-((2R,4S)-2-(6-cyclopropylimidazo[1,2-a]pyridin-2-yl)-4-hydroxypyrrolidin-1-yl)pyrimidin-4-yl)-2-(3-fluoro-4-methylpyridin-2-yl)cyclopropane-1-carboxamide]
1 to 10	O=C(Nc1cc(NCc2cn3cc(C4CC4)ccc3n2)ccn1)[C@@H]1C[C@H]1c1cccc(Cl)c1 (racemic) [Example 115, rac-(1S*,2S*)-2-(3-chlorophenyl)-N-(4-(((6-cyclopropylimidazo[1,2-a]pyridin-2-yl)methyl)amino)pyridin-2-yl)cyclopropane-1-carboxamide]
< 1	CCc1cc(N2CC(=O)N(C)C2=O)c2nc([C@@H](C)Nc3cc(NC(=O)[C@H]4C[C@@H]4c4nccc(C)n4)ncn3)cn2c1 [Example 419, (1S,2S)-N-(6-(((R)-1-(6-ethyl-8-(3-methyl-2,4-dioxoimidazolidin-1-yl)imidazo[1,2-a]pyridin-2-yl)ethyl)amino)pyrimidin-4-yl)-2-(4-methylpyrimidin-2-yl)cyclopropane-1-carboxamide]
< 1	Cc1cc(NC(=O)[C@H]2C[C@@H]2c2nccc(C)n2)cc(N[C@H](C)c2cn3cc(C4CC4)cc(N4CC(=O)N(C)C4=O)c3n2)n1 [Example I-246, (1S,2S)-N-(2-(((R)-1-(6-cyclopropyl-8-(3-methyl-2,4-dioxoimidazolidin-1-yl)imidazo[1,2-a]pyridin-2-yl)ethyl)amino)-6-methylpyridin-4-yl)-2-(4-methylpyrimidin-2-yl)cyclopropane-1-carboxamide]
1 to 10	O=C(Nc1cc(NCc2cn3cc(C4CC4)cc(N4CC(F)(F)C4)c3n2)ccn1)[C@H]1C[C@@H]1c1cccc(Cl)c1 [Example 124, (1S,2S)-2-(3-chlorophenyl)-N-(4-(((6-cyclopropyl-8-(3,3-difluoroazetidin-1-yl)imidazo[1,2-a]pyridin-2-yl)methyl)amino)pyridin-2-yl)cyclopropane-1-carboxamide]
100 to 1000	COCCOc1ccc(Cl)cc1[C@H]1C[C@@H]1C(=O)Nc1cc(NCc2cn3cc(C4CC4)ccc3n2)ncn1 (racemic) [Example 310, rac-(1S*,2S*)-2-(5-chloro-2-(2-methoxyethoxy)phenyl)-N-(6-(((6-cyclopropylimidazo[1,2-a]pyridin-2-yl)methyl)amino)pyrimidin-4-yl)cyclopropane-1-carboxamide]
< 1	Cc1ccnc([C@H]2C[C@@H]2C(=O)Nc2cc(N[C@H](C)c3cn4cc(C(C)F)cc(N5CC(=O)N(C)C5=O)c4n3)ncn2)n1 (stereo partly drawn) [Example 530, (1S,2S)-N-(6-(((1R)-1-(6-(1-fluoroethyl)-8-(3-methyl-2,4-dioxoimidazolidin-1-yl)imidazo[1,2-a]pyridin-2-yl)ethyl)amino)pyrimidin-4-yl)-2-(4-methylpyrimidin-2-yl)cyclopropane-1-carboxamide]
< 1	O=C(Nc1cc(NCc2cn3cc(C4CC4)cc(-n4cnnc4)c3n2)ncn1)[C@H]1C[C@@H]1c1cccc(Cl)c1 (racemic) [Example 405, rac-(1S*,2S*)-2-(3-chlorophenyl)-N-(6-(((6-cyclopropyl-8-(4H-1,2,4-triazol-4-yl)imidazo[1,2-a]pyridin-2-yl)methyl)amino)pyrimidin-4-yl)cyclopropane-1-carboxamide]
< 1	O=C(Nc1nccc2nn(Cc3cn4cc(C5CC5)ccc4n3)cc12)[C@H]1C[C@@H]1c1cc(Cl)ccn1 [Example 577, (1S,2S)-2-(4-chloropyridin-2-yl)-N-(2-((6-cyclopropylimidazo[1,2-a]pyridin-2-yl)methyl)-2H-pyrazolo[4,3-c]pyridin-4-yl)cyclopropane-1-carboxamide]
1000 to 6000	O=C(Nc1cc(NCc2cn3cc(C4CC4)ccc3n2)ccn1)[C@@H]1C[C@]12CCc1ccc(Cl)cc12 (relative stereo) [Example I-272, rac-(1S*,2S*)-6′-chloro-N-(4-(((6-cyclopropylimidazo[1,2-a]pyridin-2-yl)methyl)amino)pyridin-2-yl)-2′,3′-dihydrospiro[cyclopropane-1,1′-indene]-2-carboxamide]
100 to 1000	O=C(Nc1cc(NCc2cn3cc(C4CC4)cc(N4CCCC4C(F)(F)F)c3n2)ncn1)[C@H]1C[C@@H]1c1cccc(Cl)c1 (stereo partly drawn) [Example I-158, (1S,2S)-2-(3-chlorophenyl)-N-(6-(((6-cyclopropyl-8-(2-(trifluoromethyl)pyrrolidin-1-yl)imidazo[1,2-a]pyridin-2-yl)methyl)amino)pyrimidin-4-yl)cyclopropane-1-carboxamide]
1 to 10	C[S+]([O-])c1nc(NCc2cn3cc(C4CC4)ccc3n2)cc(NC(=O)[C@H]2C[C@@H]2c2cccc(Cl)c2)n1 (relative stereo) [Example 109, rac-(1S*,2S*)-2-(3-chlorophenyl)-N-(6-(((6-cyclopropylimidazo[1,2-a]pyridin-2-yl)methyl)amino)-2-(methylsulfinyl)pyrimidin-4-yl)cyclopropane-1-carboxamide]
100 to 1000	N#Cc1cc(Cl)sc1[C@H]1C[C@@H]1C(=O)Nc1cc(NCc2cn3cc(C4CC4)ccc3n2)ncn1 (racemic) [Example I-179, rac-(1S*,2S*)-2-(5-chloro-3-cyanothiophen-2-yl)-N-(6-(((6-cyclopropylimidazo[1,2-a]pyridin-2-yl)methyl)amino)pyrimidin-4-yl)cyclopropane-1-carboxamide]
> 6000	Nc1c(Cl)cccc1[C@H]1C[C@@H]1C(=O)Nc1cc(NCc2cn3cc(C4CC4)ccc3n2)ncn1 (racemic) [Example 280, rac-(1S*,2S*)-2-(2-amino-3-chlorophenyl)-N-(6-(((6-cyclopropylimidazo[1,2-a]pyridin-2-yl)methyl)amino)pyrimidin-4-yl)cyclopropane-1-carboxamide]
> 6000	COc1ccc(=O)n([C@H]2C[C@@H]2C(=O)Nc2cc(NCc3cn4cc(C5CC5)ccc4n3)ncn2)c1 (racemic) [Example I-181, rac-(1S*,2S*)-N-(6-(((6-cyclopropylimidazo[1,2-a]pyridin-2-yl)methyl)amino)pyrimidin-4-yl)-2-(5-methoxy-2-oxopyridin-1(2H)-yl)cyclopropane-1-carboxamide]

same assay, conditions: comparative compounds, 500 pM activated kallikrein format; read-out: Primary Dose Response Assay: Average EC50

EC50 [nM]	SMILES
1000 to 6000	O=C(NCCc1cccc(Br)c1)c1cnn(Cc2cn3cc(C4CC4)ccc3n2)c1
